Assay results taken from US20190175685A1, “METHODS OF TREATING AND PREVENTING CANCER TREATMENT SIDE EFFECTS” (FILAMENT BIOSOLUTIONS INC., priority 2016, published 2019).
Entries after “also recorded” stand apart in the source; their conditions may differ. Residues, ends and D or L forms follow the SMILES beside them.

Assays:
[1] = system: small intestinal crypt survival and regeneration; assay: Intestinal crypt survival after irradiation in a murine model; format: in vivo, mice; conditions: for number of surviving and regenerating crypts, pre-irradiation treatment versus treatment concurrent with radiation: oral twice daily 0.2 ml, day -5 to +4 compared with day 0 to +4, 13 Gy on day 0, scored day 4 post-irradiation
Text: In this example irradiation was used to target the proliferating clonogenic cells of the crypt. Following irradiation, crypt cells can become impaired and undergo apoptosis, or programmed cell death, resulting in a reduction in the number of viable crypts, which could regenerate and heal the intestinal tissue. The more crypts that are lost the greater the level of ulceration, which can manifest as the symptoms of mucositis. […] This model of crypt cell survival is therefore often used as a surrogate for manifestation of mucositis, e.g., oral mucositis.
In this example the efficacy of orally administered Alanyl-Glutamine (Ala-Gln) and Glutamine (Gln) on small intestinal crypt survival and regeneration and maintenance of villus structure was assessed in response to radiation insult in a murine model. The crypt cells were measured at 4 days post high-dose irradiation, a time at which crypt cells affected by radiation have died and surviving cells begin to regenerate. The level of crypt cell survival at this time directly correlates to severity of ulceration and ultimately animal survival.
Ala-Gln and Gin were administered orally twice daily at a volume of 0.2 ml either pre- and post-irradiation (day −5 to day 4), or post-irradiation alone (day 0 to day 4). The animals were given doses of Ala-Gln at a concentration of 39.65 mg/ml and Gln at a concentration of 26.75 mg/ml, which contain molar equivalent doses of Gin. Vehicle control animals were administered 0.2 ml of water orally twice daily.
Animals were irradiated on day 0 at 3 pm. Irradiation was performed using an XStrahl RS320 X-ray set, operated at 300 Kv, 10 Ma. Radiation was delivered at a dose rate of 0.832 Gy/min using a single uniform dose of 13 Gy radiation. A dosimetry device was placed in the irradiation chamber to confirm the dose received. […]
For each animal in the study, ten intestinal circumferences were analyzed, providing a total of 80 circumferences per treatment group available for analysis. The number of surviving and regenerating crypts per circumference was scored and the average per group was determined.

[2] = Plasma glutamine levels after a single oral gavage dose in rats; format: in vivo, male Sprague Dawley rats; conditions: for change in plasma glutamine levels versus pre-dose: high, medium and low dose, 3 to 540 minutes after dose, UHPLC/MS/MS
Method: Alanyl-Glutamine and glutamine were administered as a single dose by oral gavage, with deionized water as the vehicle, into male Sprague Dawley rats. The oral gavage of Alanyl-Glutamine and glutamine was administered to different groups at three distinct levels, a high, medium and low dose. Each dose level contained molar equivalent amounts of Glutamine (doses selected to correspond to relevant human doses) so that the resulting changes in plasma Glutamine levels could be directly compared in vivo. The concurrent control group received the vehicle (deionized water) by oral gavage. The dose volume was 20 ml/kg for the oral gavage. Each treatment group consisted of three males. For pharmacokinetic evaluation, blood samples were collected via a jugular vein cannula (JVC) from 3 animals/group/time point prior to dose administration and at 3, 10, 20, 40, 60, 90, 180, 360, and 540 minutes after dose administration. Each sample was analyzed to determine plasma glutamine concentration using a qualified ultra-high performance liquid chromatography mass spectrometry method (UHPLC/MS/MS), developed expressly for the determination of glutamine levels in rat plasma. A subtractive analysis of the plasma levels was then performed, in which the data from each individual animal was subtracted from their pre-dose plasma glutamine levels. The resulting data-points were then averaged for each dosing group and graphed, and represent the change in plasma glutamine after administration of the two different compositions.

Row | SMILES | number of surviving and regenerating crypts, pre-irradiation treatment versus treatment concurrent with radiation [1] | change in plasma glutamine levels versus pre-dose [2] | average number of crypts, Ala-Gln versus Gln ([1]; groups treated pre-irradiation (-5 to +4), molar equivalent doses of Gln, 13 Gy, scored day 4) | plasma glutamine levels, Alanyl-Glutamine versus glutamine at equivalent molar doses ([2]; each of three dose levels (high, middle, low))
1 | NC(=O)CC[C@H](N)C(=O)O [glutamine, reference compound] | significantly more crypts | increase in glutamine levels in the plasma at all dose levels | – | –
2 | C[C@H](N)C(=O)N[C@@H](CCC(N)=O)C(=O)O [Alanyl-Glutamine, L-alanyl-L-glutamine] (H-Ala-Gln-OH) | significantly more crypts | increase in glutamine levels in the plasma at all dose levels | higher average number of crypts | higher plasma glutamine levels at each dose; also recorded: increased more
